“And” between values parts separate entries of the source, which are not always exact repeats. Identical values can stand only once. Numbers after ± are expanded uncertainties.
Conditions: Liquid, Transpiration method

C[C@H](O)CO [(+)-(S)-1,2-propanediol]
Conditions	vapor or sublimation pressure
283.5 K	0.00427 ± 0.00024 kPa
288.2 K	0.00685 ± 0.00038 kPa
293.5 K	0.01187 ± 0.00061 kPa and 0.00968 ± 0.00051 kPa
297.4 K	0.01371 ± 0.0015 kPa
298.2 K	0.01924 ± 0.0011 kPa
298.4 K	0.01891 ± 0.0011 kPa
301.3 K	0.025 ± 0.0013 kPa
301.4 K	0.01968 ± 0.001 kPa
303.3 K	0.02341 ± 0.0012 kPa
303.4 K	0.02968 ± 0.0015 kPa
305.4 K	0.02776 ± 0.0015 kPa
306.3 K	0.03848 ± 0.0021 kPa
306.4 K	0.0369 ± 0.0021 kPa
309.3 K	0.04816 ± 0.0025 kPa
310.4 K	0.05059 ± 0.0028 kPa and 0.04222 ± 0.0024 kPa and 0.04205 ± 0.0024 kPa
312.3 K	0.06434 ± 0.0034 kPa and 0.06424 ± 0.0034 kPa
313.2 K	0.06711 ± 0.0034 kPa
313.3 K	0.06784 ± 0.0034 kPa
313.4 K	0.05485 ± 0.0027 kPa
315.4 K	0.06624 ± 0.004 kPa
316.2 K	0.09048 ± 0.0049 kPa
316.3 K	0.08971 ± 0.0049 kPa and 0.0869 ± 0.0048 kPa
318.3 K	0.09934 ± 0.0052 kPa
318.4 K	0.08522 ± 0.0044 kPa
319.3 K	0.113 ± 0.0065 kPa
320.4 K	0.1173 ± 0.006 kPa and 0.09922 ± 0.0051 kPa
320.5 K	0.09891 ± 0.0051 kPa
321.3 K	0.1276 ± 0.0077 kPa
322.3 K	0.1391 ± 0.007 kPa
322.5 K	0.1397 ± 0.007 kPa
323.4 K	0.1284 ± 0.0064 kPa
323.5 K	0.1563 ± 0.0078 kPa and 0.1318 ± 0.0066 kPa
324.5 K	0.1349 ± 0.007 kPa
325.3 K	0.1747 ± 0.01 kPa and 0.1406 ± 0.0089 kPa
325.4 K	0.1734 ± 0.01 kPa
326.4 K	0.1847 ± 0.0092 kPa
326.5 K	0.1504 ± 0.0076 kPa
327.3 K	0.1676 ± 0.011 kPa
327.4 K	0.1988 ± 0.012 kPa
328.3 K	0.2178 ± 0.011 kPa
328.4 K	0.184 ± 0.01 kPa
328.5 K	0.1824 ± 0.0099 kPa
328.6 K	0.2155 ± 0.012 kPa
329.5 K	0.2399 ± 0.013 kPa
331.3 K	0.2757 ± 0.014 kPa
331.4 K	0.2346 ± 0.012 kPa
333.3 K	0.2616 ± 0.014 kPa
335.4 K	0.303 ± 0.016 kPa
338.4 K	0.3685 ± 0.019 kPa

From the NIST ThermoML archive (doi:10.1016/j.jct.2009.04.019)
